The record followed here is article PMC11652885, “Natural volatiles preventing mosquito biting: An integrated screening platform for accelerated discovery of ORco antagonists” (The Journal of Biological Chemistry, 2024).

The assay deals with Aedes albopictus. In words: Hand in a cage repellence bioassay (human hand landing counts). Format: in vivo. To be noted: dose 50 nmole/cm^2; preliminary tests, data not shown.
As for `CCCC=CC=CC=O` [compound 39, 2,4-Octadienal], the “repellence index (RI)” value is 30%-50%.

For the compound `CCCCC/C=C\CCO` [compound 54, (Z)-3-Nonen-1-ol], the “repellence index (RI)” value was 30%-50%.

On to `CC1(C)C2CC3OC3(C)C1C2` (stereo not drawn) [compound 62, α-Pinene oxide], for which the “repellence index (RI)” value is recorded as 30%-50%.

Turning to `CC1(C)C2CCC1(C)C(O)C2` (centres unmarked) [compound 64, Borneol], the “repellence index (RI)” value is given as “high activities”.

On to `Cc1ccc2ccccc2n1` [compound 66, 2-Methylquinoline], for which the “repellence index (RI)” value was “high activities”.

Take `CC(C)=CCC[C@](C)(O)[C@@H]1CC=C(C)CC1` [compound 77, α-Bisabolol]: the “repellence index (RI)” value is reported as 30%-50%.

Regarding `CC(C)CCCCCCCCC=CCC#N` [compound 83, 13-Methyltetradec-3-ene nitrile], the “repellence index (RI)” value is given as “high activities”.

On to `CC(C)C/C=C1/C(=O)OCC1C` (centres unmarked) [compound 98, (E)-3-Methyl-2-(3-methylbutyliden)-4-butanolide], for which the “repellence index (RI)” value was “high activities”.
